{"source": "patent US20080161403A1", "about": "“1-(1,2 Diphenyl-Ethyl)-3-(2-Hydroxyethyl)-Thiourea Compounds For Combating Animal Pests” (priority 2005, published 2008)", "tested_on": "Spodoptera eridania", "test": "Southern armyworm (Spodoptera eridania), 2nd instar larvae, on dipped lima bean foliage", "assay_type": "in vivo", "conditions": "300 ppm, at 5 days", "description": "The active compounds were formulated • a. for testing the activity against Aphis gossypii, Myzus persicae, and Aphis fabae, as 50:50 acetone:water solutions amended with 100 ppm Kinetic® (surfactant), • b. for testing the activity against Spodoptera eridania as a 10.000 ppm solution in a mixture of 35% acetone and water, which was diluted with water, if needed.\nAfter the experiments were completed, in each case the lowest concentration was determined at which the compound still caused an 75 to 100% inhibition or mortality in comparison with untreated controls (limit or minimal concentration).\nFoliage of two Sieva lima beans plants at the first expanded true-leaf stage that are contained within a single 3.8 cm square plastic pot are dipped into the test solution with agitation for 3 seconds and allowed to dry in a hood. The pot is then placed in a 25.4 cm plastic zipper top bag and infested with ten 2nd instar caterpillars. At 5 days, observations are made of mortality, reduced feeding, or any interference with normal molting."}
{"compound": "OCCNC(=S)NC(Cc1cccc(C(F)(F)F)c1)c1cc(Cl)ccc1Cl", "note": "(stereo not shown) [Example 77]", "values": [{"measurement": "mortality in comparison with untreated controls", "result": "over 75%"}]}
